# Assay results published in patent publication US12185743B2, “Processes for transglucosylation of steviol glycosides” (Beijing Gingko-Group Biological Technology Co., Ltd., priority 2019, dated 2025).
# Assay: Dissolution of RebD and RebM
# Type: physicochemical
# Details: without maltooligosaccharides
row,dissolution,Compound
1,do not dissolve completely,"C=C1C[C@@]23CC[C@H]4[C@@](C)(CCC[C@@]4(C)C(=O)O[C@@H]4O[C@H](CO)[C@@H](O)[C@H](O)[C@H]4O[C@@H]4O[C@H](CO)[C@@H](O)[C@H](O)[C@H]4O)[C@@H]2CC[C@]1(O[C@@H]1O[C@H](CO)[C@@H](O)[C@H](O[C@@H]2O[C@H](CO)[C@@H](O)[C@H](O)[C@H]2O)[C@H]1O[C@@H]1O[C@H](CO)[C@@H](O)[C@H](O)[C@H]1O)C3 [RebD, Rebaudioside D]"
2,do not dissolve completely,"C=C1C[C@@]23CC[C@H]4[C@@](C)(CCC[C@@]4(C)C(=O)O[C@@H]4O[C@H](CO)[C@@H](O)[C@H](O[C@@H]5O[C@H](CO)[C@@H](O)[C@H](O)[C@H]5O)[C@H]4O[C@@H]4O[C@H](CO)[C@@H](O)[C@H](O)[C@H]4O)[C@@H]2CC[C@]1(O[C@@H]1O[C@H](CO)[C@@H](O)[C@H](O[C@@H]2O[C@H](CO)[C@@H](O)[C@H](O)[C@H]2O)[C@H]1O[C@@H]1O[C@H](CO)[C@@H](O)[C@H](O)[C@H]1O)C3 [RebM, Rebaudioside M]"
